Test system: 777334-354-R2-J4-PDC tumor spheroids with HUVEC/MSC, viability
Experiment: Anticancer human tumor 777334-354-R2-J4-PDC patient-derived pancreatic adenocarcinoma cell line growth inhibition [GQUAD]
Conditions: for IC50: curve of first compound; for viability, T/C: stronger effect = lower value
How it was run: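 Multi-cell-type spheroids of tumor cells with HUVEC and mesenchymal stem cells, treated with drug combinations. Concentrations descend in half-log steps from near clinical Cmax, or from 10 microM where Cmax is unknown; viability read-out.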

[1] = second compound 0.0316 µM, first compound 0.0316 µM
[2] = second compound 0.0316 µM, first compound 0.1 µM
[3] = second compound 0.0316 µM, first compound 0.316 µM
[4] = second compound 0.0316 µM, first compound 1 µM
[5] = second compound 0.0316 µM, first compound 3.16 µM
[6] = second compound 0.0316 µM, first compound 10 µM
[7] = second compound 0.1 µM, first compound 0.0316 µM
[8] = second compound 0.1 µM, first compound 0.1 µM
[9] = second compound 0.1 µM, first compound 0.316 µM
[10] = second compound 0.1 µM, first compound 1 µM
[11] = second compound 0.1 µM, first compound 3.16 µM
[12] = second compound 0.1 µM, first compound 10 µM
[13] = second compound 0.316 µM, first compound 0.0316 µM
[14] = second compound 0.316 µM, first compound 0.1 µM
[15] = second compound 0.316 µM, first compound 0.316 µM
[16] = second compound 0.316 µM, first compound 1 µM
[17] = second compound 0.316 µM, first compound 3.16 µM
[18] = second compound 0.316 µM, first compound 10 µM
[19] = second compound 1 µM, first compound 0.0316 µM
[20] = second compound 1 µM, first compound 0.1 µM
[21] = second compound 1 µM, first compound 0.316 µM
[22] = second compound 1 µM, first compound 1 µM
[23] = second compound 1 µM, first compound 3.16 µM
[24] = second compound 1 µM, first compound 10 µM
[25] = second compound 3.16 µM, first compound 0.0316 µM
[26] = second compound 3.16 µM, first compound 0.1 µM
[27] = second compound 3.16 µM, first compound 0.316 µM
[28] = second compound 3.16 µM, first compound 1 µM
[29] = second compound 3.16 µM, first compound 3.16 µM
[30] = second compound 3.16 µM, first compound 10 µM
[31] = second compound 10 µM, first compound 0.0316 µM
[32] = second compound 10 µM, first compound 0.1 µM
[33] = second compound 10 µM, first compound 0.316 µM
[34] = second compound 10 µM, first compound 1 µM
[35] = second compound 10 µM, first compound 3.16 µM
[36] = second compound 10 µM, first compound 10 µM
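Note: spheroids exposed to compounds for 7 days before readout.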

`C#Cc1c(F)ccc2cc(O)cc(-c3ncc4c(N5CC6CCC(C5)N6)nc(OCC56CCCN5CC(F)C6)nc4c3F)c12` (stereo unspecified) + Cc1[nH]c2ccc(F)cc2c1-c1nc2c3cccnc3c3ncccc3c2[nH]1 was tested, and the IC50 (second compound 0.0316 µM) was 81.4 nM, the IC50 (second compound 0.1 µM) was 47.8 nM and the IC50 (second compound 0.316 µM) was under 31.6 nM. For the same compound, the IC50 (second compound 1 µM) was under 31.6 nM, the IC50 (second compound 3.16 µM) was under 31.6 nM and the IC50 (second compound 10 µM) was under 31.6 nM. For the same compound, the viability, T/C [1] was 54.6%, the viability, T/C [2] was 52.6% and the viability, T/C [3] was 37.2%. It also gave a viability, T/C [4] of 34.6%, a viability, T/C [5] of 25.9% and a viability, T/C [6] of 20%. It also gave a viability, T/C [7] of 56.3%, a viability, T/C [8] of 37.2% and a viability, T/C [9] of 32.2%. For the same compound, the viability, T/C [10] was 38.1%, the viability, T/C [11] was 26.3% and the viability, T/C [12] was 20.8%. The viability, T/C [13] was 51.2%, the viability, T/C [14] was 38.6% and the viability, T/C [15] was 34.9%. For the same compound, the viability, T/C [16] was 39.1%, the viability, T/C [17] was 21% and the viability, T/C [18] was 24.6%. For the same compound, the viability, T/C [19] was 48%, the viability, T/C [20] was 33.9% and the viability, T/C [21] was 27.6%. For the same compound, the viability, T/C [22] was 26.1%, the viability, T/C [23] was 21.9% and the viability, T/C [24] was 18.1%. For the same compound, the viability, T/C [25] was 26%, the viability, T/C [26] was 10.1% and the viability, T/C [27] was 9.09%. It also gave a viability, T/C [28] of 7.85%, a viability, T/C [29] of 10.6% and a viability, T/C [30] of 8.93%. It also gave a viability, T/C [31] of 16.9%, a viability, T/C [32] of 9.99% and a viability, T/C [33] of 10.5%. The viability, T/C [34] was 10.1%, the viability, T/C [35] was 8.96% and the viability, T/C [36] was 8.05%.
Work on `CC1COCCN1c1cc(C2(S(C)(=N)=O)CC2)nc(-c2ccnc3[nH]ccc23)n1` (stereo unspecified) + Cc1[nH]c2ccc(F)cc2c1-c1nc2c3cccnc3c3ncccc3c2[nH]1 yielded an IC50 (second compound 0.0316 µM) of over 10000 nM, an IC50 (second compound 0.1 µM) of over 10000 nM and an IC50 (second compound 0.316 µM) of over 10000 nM. The IC50 (second compound 1 µM) was 7070 nM, the IC50 (second compound 3.16 µM) was under 31.6 nM and the IC50 (second compound 10 µM) was under 31.6 nM. It also gave a viability, T/C [1] of 109%, a viability, T/C [2] of 98.9% and a viability, T/C [3] of 108%. For the same compound, the viability, T/C [4] was 100%, the viability, T/C [5] was 87.7% and the viability, T/C [6] was 62.2%. The viability, T/C [7] was 113%, the viability, T/C [8] was 92.7% and the viability, T/C [9] was 118%. For the same compound, the viability, T/C [10] was 85.8%, the viability, T/C [11] was 94.5% and the viability, T/C [12] was 74.8%. It also gave a viability, T/C [13] of 94.8%, a viability, T/C [14] of 97.7% and a viability, T/C [15] of 88.3%. For the same compound, the viability, T/C [16] was 96.2%, the viability, T/C [17] was 89.9% and the viability, T/C [18] was 56%. The viability, T/C [19] was 88.7%, the viability, T/C [20] was 93.8% and the viability, T/C [21] was 87.1%. For the same compound, the viability, T/C [22] was 75.5%, the viability, T/C [23] was 67.9% and the viability, T/C [24] was 42.7%. For the same compound, the viability, T/C [25] was 41.8%, the viability, T/C [26] was 27.1% and the viability, T/C [27] was 35%. It also gave a viability, T/C [28] of 22.8%, a viability, T/C [29] of 25.8% and a viability, T/C [30] of 12%. It also gave a viability, T/C [31] of 36%, a viability, T/C [32] of 29.2% and a viability, T/C [33] of 29.6%. For the same compound, the viability, T/C [34] was 18.9%, the viability, T/C [35] was 20.7% and the viability, T/C [36] was 11.1%.
For `Nc1ccn(C2OC(CO)C(O)C2(F)F)c(=O)n1` (stereo unspecified) + Cc1cnc(CNC(=O)c2c(=O)c3ccc(N4CCCN(C)CC4)nc3n3c2sc2ccccc23)cn1, the IC50 (second compound 0.0316 µM) was 975 nM, the IC50 (second compound 0.1 µM) was 679 nM and the IC50 (second compound 0.316 µM) was 1200 nM. The IC50 (second compound 1 µM) was 334 nM, the IC50 (second compound 3.16 µM) was 503 nM and the IC50 (second compound 10 µM) was 180 nM. For the same compound, the viability, T/C [1] was 81.2%, the viability, T/C [2] was 61.2% and the viability, T/C [3] was 69.1%. The viability, T/C [4] was 46.3%, the viability, T/C [5] was 39.1% and the viability, T/C [6] was 31.6%. The viability, T/C [7] was 85.4%, the viability, T/C [8] was 64.5% and the viability, T/C [9] was 60.8%. The viability, T/C [10] was 45.7%, the viability, T/C [11] was 37.5% and the viability, T/C [12] was 32.7%. For the same compound, the viability, T/C [13] was 81.5%, the viability, T/C [14] was 72.5% and the viability, T/C [15] was 55.5%. It also gave a viability, T/C [16] of 51.7%, a viability, T/C [17] of 47.8% and a viability, T/C [18] of 31.6%. It also gave a viability, T/C [19] of 67.9%, a viability, T/C [20] of 58.2% and a viability, T/C [21] of 46.4%. It also gave a viability, T/C [22] of 45.2%, a viability, T/C [23] of 41.1% and a viability, T/C [24] of 30.2%. It also gave a viability, T/C [25] of 61.1%, a viability, T/C [26] of 64% and a viability, T/C [27] of 48.4%. For the same compound, the viability, T/C [28] was 43.9%, the viability, T/C [29] was 43.6% and the viability, T/C [30] was 30.5%. It also gave a viability, T/C [31] of 57.3%, a viability, T/C [32] of 48.3% and a viability, T/C [33] of 48.7%. The viability, T/C [34] was 40.4%, the viability, T/C [35] was 41.6% and the viability, T/C [36] was 27%.
